Test results: article PMC11085442 (Molecules, 2024)
Values after ≈ are worked out from the molar mass of the structure shown.

Legend:
PC 12 cell lines = assay: Radiation protection in vitro (CCK-8); type: cell-based, rat; conditions: for viability at 5 µM / viability at 10 µM / viability at 20 µM: Rattus norvegicus; for viability at 5 µM: PC-12, Dose 5 μM; for viability at 5 µM / viability at 10 µM / viability at 20 µM / Cell viability: radiation 8.0 Gy, PC 12, radiation group 50.22 ± 1.08; for viability at 10 µM: PC-12, Dose 10 μM; for viability at 20 µM: PC-12, Dose 20 μM; for radiation protection capacity / radiation protection capability compared with curcumin: 10 μM; for radiation protection capacity: versus radiation group; for Cell viability: in % (unit assumed); for radiation protection capability compared with curcumin: irradiated PC 12
Experimental: The rat adrenal pheochromocytoma cells (PC 12) were used for in vitro studies. A Cell Counting Kit-8 (CCK-8, Applygen Technologies Co., Ltd., Beijing, China) assay was used to determine cell viability. […] Cells were irradiated with dose of 8.0 Gy at a dose rate of 0.8 Gy/min. Then, 10 μL CCK-8 solution was added to all the wells. After 4 h incubation, the absorbance at 450 nm of each well was measured in a multiscan photometer.

[1] = tested on: LPS-stimulated RAW264.7 cell lines; assay: LPS-induced NO production (Griess) in RAW264.7; type: cell-based, murine; conditions: for inhibitory activity against NO production compared with curcumin: 10 μM; for The production of NO / inhibition at 10 µM: LPS-stimulated RAW264.7; for The production of NO: LPS group 49.86 ± 0.62, control 1.20 ± 0.38; for inhibition at 10 µM: Mus musculus, read-out: inhibition rate (anti-inflammatory activity)
Experimental: RAW 264.7 cells were plated in 96-well plates at a density of 1 × 10^4 cells/well and incubated overnight at 37 °C under 5% CO2. […] Dexamethasone (Solarbio, D8040, Beijing, China) was used as the positive control. Then, 24 h later, NO production was determined by measuring the nitrite content using Griess reagents. Fifty microliters of culture supernatants were transferred to 96-well plates and mixed with 50 μL Griess reagent A. After incubation at room temperature for 5 min, the samples were mixed with an equal volume Griess reagent B for another 5 min. The absorbance of each mixture at 540 nm was measured using a microplate reader.

[2] = Aqueous solubility determination by UV spectrophotometer; type: physicochemical; conditions: water, thermodynamic from solid, saturated solution concentration
Experimental: A UV spectrophotometer was used to test the aqueous solubility of target compounds. Each compound to be tested was prepared into solutions with concentrations of 0.2 M, 0.1 M, 0.05 M, 0.025 M, 0.0125 M, 0.00625 M, and 0.003125 M. The optical density (OD) values of the prepared solutions were measured using an ultraviolet spectrophotometer, and concentration–OD-value standard curves were drawn for each compound to be tested. The saturated solutions of the target compounds were diluted by 5000 times and detected using an ultraviolet spectrophotometer to measure the OD values, respectively. The measured OD values were substituted into the corresponding concentration-OD value standard curve to calculate the diluted concentrations, which were multiplied by 5000 to obtain the saturated solution concentrations of the target compounds.

[3] = tested on: H2O2-stimulated PC 12 cell lines; assay: Protection against H2O2-induced oxidative damage (CCK-8); type: cell-based, rat; conditions: for Cell viability / viability at 5 µM / viability at 10 µM / viability at 20 µM: H2O2-induced oxidative damage, PC 12, H2O2 group 49.69 ± 1.37, control 100; for Cell viability: in % (unit assumed); for viability at 5 µM / viability at 10 µM / viability at 20 µM: Rattus norvegicus; for viability at 5 µM: PC-12, Dose 5 μM; for viability at 10 µM: PC-12, Dose 10 μM; for viability at 20 µM: PC-12, Dose 20 μM
Experimental: PC 12 cells were seeded in 96-well plates at a density of 8000 cells/well and incubated overnight. […] After incubating under the same conditions for 24 h, 10 μL CCK-8 solution was added to each well. After 2 h incubation, the absorbance of each well was measured at 450 nm using a microplated reader (Multiskan MK-3, Thermo, Waltham, MA, USA).

SMILES	viability at 5 µM (PC 12 cell lines)	viability at 10 µM (PC 12 cell lines)	viability at 20 µM (PC 12 cell lines)	inhibitory activity against NO production compared with curcumin [1]	The production of NO ([1]; Dose 5 μM)	The production of NO ([1]; Dose 10 μM)	The production of NO ([1]; Dose 15 μM)	Cell viability ([3]; Dose 5 μM)	Cell viability ([3]; Dose 10 μM)	Cell viability ([3]; Dose 20 μM)	Cell viability (PC 12 cell lines; Dose 5 μM)	Cell viability (PC 12 cell lines; Dose 10 μM)	Cell viability (PC 12 cell lines; Dose 20 μM)	viability at 5 µM [3]	viability at 10 µM [3]	viability at 20 µM [3]	other results
COc1cc(/C=C/C(=O)CC(=O)/C=C/c2ccc(O)c(Cl)c2)cc(CN(C)C)c1O [Compound 7a]	62.1 ± 1.39%	65.5 ± 2.03%	75.7 ± 2.05%	better inhibitory activity	35.35 ± 1.59	16.83 ± 0.42	9.77 ± 0.63	54.89 ± 1.04	62.07 ± 4.16	79.65 ± 3.04	–	–	–	–	–	–	solubility [2]: 258 mg/mL (≈ 600 mM); cell survival rate (anti-oxidant) ([3]; at 10 μM, H2O2-stimulated PC 12): 62%
COc1cc(/C=C/C(=O)CC(=O)/C=C/c2cc(C)c(O)c(C)c2)cc(CN(C)C)c1O [Compound 8]	–	–	–	–	42.90 ± 0.85	20.21 ± 1.82	5.46 ± 0.34	–	–	–	53.58 ± 0.78	55.23 ± 1.26	78.50 ± 2.59	64.6 ± 1.64%	67.8 ± 2.26%	81.7 ± 3.21%	radiation protection capacity (PC 12 cell lines): a certain degree of radiation protection capacity
COc1cc(/C=C/C(=O)CC(=O)/C=C/c2ccc(O)cc2)cc(CN(C)C)c1O [Compound 10]	58.4 ± 1.95%	63.9 ± 2.22%	79.3 ± 3.13%	better inhibitory activity	36.66 ± 2.00	15.36 ± 2.09	4.91 ± 0.77	53.53 ± 2.28	58.20 ± 1.24	77.80 ± 2.65	–	–	–	–	–	–	inhibition at 10 µM [1]: 71%
COc1cc(/C=C/C(=O)CC(=O)/C=C/c2ccc(OC)c(OC)c2OC)cc(CN(C)C)c1O [Compound 6]	–	–	–	better inhibitory activity	27.16 ± 2.73	14.67 ± 3.66	5.95 ± 0.13	–	–	–	58.25 ± 1.05	62.18 ± 1.03	83.08 ± 6.65	56.6 ± 1.66%	67.8 ± 1.91%	94.89 ± 0.58%	radiation protection capability compared with curcumin (PC 12 cell lines): better radiation protection capability; radiation protection capacity (PC 12 cell lines): a certain degree of radiation protection capacity
COc1cc(/C=C/C(=O)CC(=O)/C=C/c2c(C)cc(O)cc2C)cc(CN(C)C)c1O [Compound 13]	61.4 ± 1.58%	67.8 ± 2.32%	87.38 ± 0.6%	–	26.57 ± 1.74	21.53 ± 0.35	10.02 ± 0.61	62.94 ± 0.50	69.55 ± 1.06	80.61 ± 0.83	–	–	–	–	–	–	–
COc1cc(O)ccc1/C=C/C(=O)CC(=O)/C=C/c1cc(CN(C)C)c(O)c(OC)c1 [Compound 9]	–	–	–	–	42.38 ± 2.73	29.76 ± 1.48	19.69 ± 0.78	–	–	–	56.32 ± 1.77	59.94 ± 1.26	65.00 ± 1.84	53.22 ± 0.26%	58.53 ± 0.46%	66.1 ± 1.09%	inhibition at 10 µM [1]: 41%
COc1cc(/C=C/C(=O)CC(=O)/C=C/c2ccc(O)cc2C)cc(CN(C)C)c1O [Compound 3]	–	–	–	–	39.26 ± 2.12	30.62 ± 1.71	10.36 ± 3.69	–	–	–	49.57 ± 2.70	51.85 ± 2.04	57.44 ± 1.80	64.7 ± 2.69%	71.7 ± 3.77%	81.7 ± 2.41%	–
COc1cc(/C=C/C(=O)CC(=O)/C=C/c2c(OC)cc(O)cc2OC)cc(CN(C)C)c1O [Compound 14]	53.08 ± 0.34%	54.4 ± 0.72%	63.5 ± 1.49%	–	27.84 ± 1.41	22.09 ± 0.55	9.39 ± 0.34	59.32 ± 2.89	65.73 ± 2.40	74.30 ± 1.25	–	–	–	–	–	–	–
COc1cc(/C=C/C(=O)CC(=O)/C=C/c2cc(C)c(O)cc2C)cc(CN(C)C)c1O [Compound 12]	56.6 ± 1.03%	63.1 ± 1.52%	76.8 ± 1.27%	better inhibitory activity	32.06 ± 0.58	15.78 ± 0.50	11.39 ± 1.00	60.69 ± 1.53	70.31 ± 1.65	79.23 ± 1.18	–	–	–	–	–	–	radiation protection capacity (PC 12 cell lines): a certain degree of radiation protection capacity
COc1cc(/C=C/C(=O)CC(=O)/C=C/c2ccc(O)cc2F)cc(CN(C)C)c1O [Compound 4]	–	–	–	–	40.64 ± 1.28	29.91 ± 1.78	10.48 ± 0.47	–	–	–	49.46 ± 1.97	51.75 ± 0.40	59.56 ± 0.59	61.7 ± 2.59%	71 ± 2.33%	84.7 ± 2.76%	–
COc1cc(/C=C/C(=O)CC(=O)/C=C/c2cc(OC)c(O)c(OC)c2)cc(CN(C)C)c1O [Compound 2]	–	–	–	–	43.78 ± 1.52	42.04 ± 1.70	36.99 ± 1.85	–	–	–	50.96 ± 1.31	52.89 ± 2.05	54.68 ± 1.78	55.7 ± 0.79%	58.2 ± 0.8%	63.4 ± 1.13%	–
COc1cc(/C=C/C(=O)CC(=O)/C=C/c2ccc(O)c(Cl)c2)cc(CN(C)C)c1O [Compound 7]	–	–	–	–	35.15 ± 2.72	18.46 ± 2.34	10.47 ± 1.32	–	–	–	61.54 ± 2.47	63.26 ± 3.00	69.98 ± 4.31	54.4 ± 1.18%	61.9 ± 1.29%	78.2 ± 1.43%	–
COc1cc(/C=C/C(=O)CC(=O)/C=C/c2cc(CN(C)C)c(O)c(OC)c2)ccc1O [Compound 15]	58.6 ± 0.61%	63.45 ± 0.21%	77 ± 1.23%	–	41.85 ± 1.07	28.31 ± 0.33	14.00 ± 0.92	60.18 ± 1.41	71.98 ± 3.71	87.82 ± 1.77	–	–	–	–	–	–	radiation protection capability compared with curcumin (PC 12 cell lines): no statistical difference; inhibition at 10 µM [1]: 44%; anti-oxidant capacity compared with curcumin ([3]; 10 μM, H2O2-stimulated PC 12): no statistical difference
COc1cc(/C=C/C(=O)CC(=O)/C=C/c2cc(CN(C)C)c(O)c(OC)c2)ccc1O [Compound 15a]	–	–	–	better inhibitory activity	33.79 ± 2.90	17.01 ± 0.60	4.71 ± 0.18	–	–	–	–	–	–	62.2 ± 2.53%	72.5 ± 2.02%	89.22 ± 0.36%	solubility [2]: 284 mg/mL (≈ 667 mM)
